Data reported in PubChem BioAssay (NCI).
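Here, GI50 denotes the concentration required for 50% inhibition of growth. TGI marks complete inhibition of growth.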

Assays:
Test in all cases: inhibition of tumour cell growth, NCI panel, 384-well format
MDA-MB-231 breast = test system: MDA-MB-231 breast
OVCAR-8 ovarian = test system: OVCAR-8 ovarian
SF-539 CNS = test system: SF-539 CNS
TK-10 renal = test system: TK-10 renal
COLO 205 colon = test system: COLO 205 colon
HT29 colon = test system: HT29 colon
A549 NSCLC = test system: A549 NSCLC
HOP-62 NSCLC = test system: HOP-62 NSCLC
SK-OV-3 ovarian = test system: SK-OV-3 ovarian
MDA-MB-435 melanoma = test system: MDA-MB-435 melanoma
ACHN renal = test system: ACHN renal
HL-60(TB) leukemia = test system: HL-60(TB) leukemia
SF-268 CNS = test system: SF-268 CNS
HCT-15 colon = test system: HCT-15 colon
SK-MEL-28 melanoma = test system: SK-MEL-28 melanoma
KM12 colon = test system: KM12 colon
MALME-3M melanoma = test system: MALME-3M melanoma
786-0 renal = test system: 786-0 renal
OVCAR-5 ovarian = test system: OVCAR-5 ovarian
MDA-MB-468 breast = test system: MDA-MB-468 breast
PC-3 prostate = test system: PC-3 prostate
NCI/ADR-RES ovarian = test system: NCI/ADR-RES ovarian
NCI-H522 lung = test system: NCI-H522 lung
A498 renal = test system: A498 renal
CAKI-1 renal = test system: CAKI-1 renal
EKVX NSCLC = test system: EKVX NSCLC
NCI-H460 NSCLC = test system: NCI-H460 NSCLC
UACC-62 melanoma = test system: UACC-62 melanoma
NCI-H322M lung = test system: NCI-H322M lung
NCI-H226 lung = test system: NCI-H226 lung
SF-295 CNS = test system: SF-295 CNS
HCC-2998 colon = test system: HCC-2998 colon
SR leukemia = test system: SR leukemia
MOLT-4 leukemia = test system: MOLT-4 leukemia
U251 glioblastoma = test system: U251 glioblastoma
IGROV1 ovarian = test system: IGROV1 ovarian
M14 melanoma = test system: M14 melanoma
CCRF-CEM leukemia = test system: CCRF-CEM leukemia
SNB-19 CNS = test system: SNB-19 CNS
DU-145 prostate = test system: DU-145 prostate
RXF 393 renal = test system: RXF 393 renal
MCF7 breast = test system: MCF7 breast
HOP-92 NSCLC = test system: HOP-92 NSCLC
RPMI-8226 leukemia = test system: RPMI-8226 leukemia
HS 578T breast = test system: HS 578T breast
OVCAR-3 ovarian = test system: OVCAR-3 ovarian
T-47D breast = test system: T-47D breast
BT-549 breast = test system: BT-549 breast
OVCAR-4 ovarian = test system: OVCAR-4 ovarian
UACC-257 melanoma = test system: UACC-257 melanoma
SNB-75 CNS = test system: SNB-75 CNS
NCI-H23 lung = test system: NCI-H23 lung
SN12C renal = test system: SN12C renal
SK-MEL-2 melanoma = test system: SK-MEL-2 melanoma
SW-620 colon = test system: SW-620 colon
SK-MEL-5 melanoma = test system: SK-MEL-5 melanoma

**Q.** What does the source list for `O=c1[nH]c(-c2ccc(C(F)(F)F)cc2)nc2c1CSCC2`?
**A.** GI50 (MDA-MB-231 breast): > 100 µM; TGI (MDA-MB-231 breast): > 100 µM; GI50 (OVCAR-8 ovarian): > 100 µM; TGI (OVCAR-8 ovarian): > 100 µM; GI50 (SF-539 CNS): > 100 µM; TGI (SF-539 CNS): > 100 µM; GI50 (TK-10 renal): > 100 µM; TGI (TK-10 renal): > 100 µM; GI50 (COLO 205 colon): > 100 µM; TGI (COLO 205 colon): > 100 µM; GI50 (HT29 colon): > 100 µM; TGI (HT29 colon): > 100 µM; GI50 (A549 NSCLC): > 100 µM; TGI (A549 NSCLC): > 100 µM; GI50 (HOP-62 NSCLC): 79.5 µM; TGI (HOP-62 NSCLC): > 100 µM; GI50 (SK-OV-3 ovarian): 14.7 µM; TGI (SK-OV-3 ovarian): > 100 µM; GI50 (MDA-MB-435 melanoma): > 100 µM; TGI (MDA-MB-435 melanoma): > 100 µM; GI50 (ACHN renal): > 100 µM; TGI (ACHN renal): > 100 µM; GI50 (HL-60(TB) leukemia): > 100 µM; TGI (HL-60(TB) leukemia): > 100 µM; GI50 (SF-268 CNS): 98.9 µM; TGI (SF-268 CNS): > 100 µM; GI50 (HCT-15 colon): > 100 µM; TGI (HCT-15 colon): > 100 µM; GI50 (SK-MEL-28 melanoma): > 100 µM; TGI (SK-MEL-28 melanoma): > 100 µM; GI50 (KM12 colon): > 100 µM; TGI (KM12 colon): > 100 µM; GI50 (MALME-3M melanoma): 25 µM; TGI (MALME-3M melanoma): > 100 µM; GI50 (786-0 renal): > 100 µM; TGI (786-0 renal): > 100 µM; GI50 (OVCAR-5 ovarian): > 100 µM; TGI (OVCAR-5 ovarian): > 100 µM; GI50 (MDA-MB-468 breast): 7.03 µM; TGI (MDA-MB-468 breast): 53 µM; GI50 (PC-3 prostate): > 100 µM; TGI (PC-3 prostate): > 100 µM; GI50 (NCI/ADR-RES ovarian): > 100 µM; TGI (NCI/ADR-RES ovarian): > 100 µM; GI50 (NCI-H522 lung): 28.8 µM; TGI (NCI-H522 lung): > 100 µM; GI50 (A498 renal): 95.7 µM; TGI (A498 renal): > 100 µM; GI50 (CAKI-1 renal): 3.83 µM; TGI (CAKI-1 renal): > 100 µM; GI50 (EKVX NSCLC): 24 µM; TGI (EKVX NSCLC): > 100 µM; GI50 (NCI-H460 NSCLC): > 100 µM; TGI (NCI-H460 NSCLC): > 100 µM; GI50 (UACC-62 melanoma): > 100 µM; TGI (UACC-62 melanoma): > 100 µM; GI50 (NCI-H322M lung): > 100 µM; TGI (NCI-H322M lung): > 100 µM; GI50 (NCI-H226 lung): 13.3 µM; TGI (NCI-H226 lung): > 100 µM; GI50 (SF-295 CNS): > 100 µM; TGI (SF-295 CNS): > 100 µM; GI50 (HCC-2998 colon): > 100 µM; TGI (HCC-2998 colon): > 100 µM; GI50 (SR leukemia): > 100 µM; TGI (SR leukemia): > 100 µM; GI50 (MOLT-4 leukemia): 68.7 µM; TGI (MOLT-4 leukemia): > 100 µM; GI50 (U251 glioblastoma): > 100 µM; TGI (U251 glioblastoma): > 100 µM; GI50 (IGROV1 ovarian): > 100 µM; TGI (IGROV1 ovarian): > 100 µM; GI50 (M14 melanoma): > 100 µM; TGI (M14 melanoma): > 100 µM; GI50 (CCRF-CEM leukemia): 88.6 µM; TGI (CCRF-CEM leukemia): > 100 µM; GI50 (SNB-19 CNS): > 100 µM; TGI (SNB-19 CNS): > 100 µM; GI50 (DU-145 prostate): > 100 µM; TGI (DU-145 prostate): > 100 µM; GI50 (RXF 393 renal): 13.5 µM; TGI (RXF 393 renal): > 100 µM; GI50 (MCF7 breast): > 100 µM; TGI (MCF7 breast): > 100 µM; GI50 (HOP-92 NSCLC): > 100 µM; TGI (HOP-92 NSCLC): > 100 µM; GI50 (RPMI-8226 leukemia): 78.3 µM; TGI (RPMI-8226 leukemia): > 100 µM; GI50 (HS 578T breast): > 100 µM; TGI (HS 578T breast): > 100 µM; GI50 (OVCAR-3 ovarian): 13.5 µM; TGI (OVCAR-3 ovarian): > 100 µM; GI50 (T-47D breast): > 100 µM; TGI (T-47D breast): > 100 µM; GI50 (BT-549 breast): 30.5 µM; TGI (BT-549 breast): > 100 µM; GI50 (OVCAR-4 ovarian): 0.818 µM; TGI (OVCAR-4 ovarian): > 100 µM; GI50 (UACC-257 melanoma): > 100 µM; TGI (UACC-257 melanoma): > 100 µM; GI50 (SNB-75 CNS): 24.5 µM; TGI (SNB-75 CNS): > 100 µM; GI50 (NCI-H23 lung): 25.7 µM; TGI (NCI-H23 lung): > 100 µM; GI50 (SN12C renal): > 100 µM; TGI (SN12C renal): > 100 µM; GI50 (SK-MEL-2 melanoma): 72.9 µM; TGI (SK-MEL-2 melanoma): > 100 µM; GI50 (SW-620 colon): > 100 µM; TGI (SW-620 colon): > 100 µM; GI50 (SK-MEL-5 melanoma): 52.5 µM; TGI (SK-MEL-5 melanoma): > 100 µM
